Data on 22 compounds can be found in patent publication US4866058A, “Method for control of hyperlipidemia” (priority 1988, dated 1989).

The test system of series [1] is serum cholesterol and serum triglyceride levels. In words: Testing of normal mice: hypolipidemic activity in CF1 mice. The series is classed as in vivo, CF1 male mice. Conditions: for response vs control in vivo at 20 mg/kg/day: Mus musculus. On the procedure:
The following compounds were tested for their hypolpidemic activity in CF1 mice.
Compounds A-V as defined above, were suspended in an aqueous 1 percent carboxymethylcellulose (CMC) solution and homogenized. Each of the so prepared compounds were administered to a group of six CF1 male mice, each weighing approximately 25 grams, intraperitioneally for 16 days. Each of these compounds were provided in a dosage of 20 mg/kg/d ip. On Days 9 and 16 blood was obtained by tail vein bleeding. The blood serum so obtained was separated by centrifugation for three minutes. Serum cholesterol levels were determined by a modification of the Liebermann-Burchard reaction (Ness, Clin. Chim. Acta., Vol. 10, 229 [1964]). Serum triglyceride levels were determined on Day 16 by use of the Fisher, Hycel Triglyceride Test Kit.
In addition to the above-described treated mice, an untreated control group of six mice were similarly tested on Days 9 and 16 to determine their serum cholesterol and trigylceride blood levels. Based on the results obtained for the untreated control group, the percent control, based on serum cholesterol and serum triglyceride levels of the treated mice compared to the untreated mice, was obtained. Table 1 reports this percent control, including standard deviation, indicating the level of confidence of these numbers.

Series [2] can be described thus: in vivo. Conditions: mouse, ip.
The subject of series [3] is serum cholesterol and serum triglyceride levels. In words: Testing of hyperlipidemic mice (atherogenic diet). It is filed as in vivo, CF1 male mice. The conditions noted are these: hyperlipidemic CF1 mice, 20 mg/kg/d intraperitoneally, Day 12. Here is the method:
A group of six CF^1 male mice (about 25 g) were placed on a commercial diet (U.S. Biochemical Corporation Basal Atherogenic Test Diet) which produced a "hyperlipidemic" state. That is, the average serum cholesterol level in the group of treated mice was raised from 122 to 375 mg percent and triglyceride levels were raised from 137 to 367 mg/dL.

Series [4] deals with serum lipoprotein. In words: Cholesterol content of serum lipoprotein of treated Sprague-Dawley rats. The series is classed as in vivo. Conditions: orally 14 days at 20 mg/kg/day. The text has this: A test solution of Compounds A, F, J, M, N and O were suspended in an aqueous solution of 1% CMC, homogenized and administered orally to six Sprague-Dawley male rats, which each weighted approximately 350 grams. Administration of the compounds was by an intubation needle. The rats were each fed with 20 milligrams of Compounds A, F, J, M, N and O per kilogram of body weight per day for 14 days. Similarly, six Sprague-Dawley male rats of approximately the same weight (that used for testing F weighed approximately 160 grams) were fed similar volumes of the same aqueous 1% CMC solution without the active agents, also orally, administered by intubation needle. In addition, as a control, a similar group of six male Sprague-Dawley rats were untreated.
The cholesterol content of serum lipoprotein
of Sprague-Dawley Rats treated
orally for 14 days at 20 mg/kg/day

Series [5] relates to plasma lipids. The conditions noted are these: rats; cited from earlier work.
Where [6] appears, read: normal CF1 mice, 20 mg/kg/d ip, Day 16.
Setting [7] is: 216 h, normal CF1 mice, 20 mg/kg/d ip, Day 9, read-out: Serum Cholesterol, Day 9.
The mark [8] stands for this setting: 384 h, normal CF1 mice, 20 mg/kg/d ip, Day 16, read-out: Serum Cholesterol, Day 16.
[9] abbreviates: 384 h, normal CF1 mice, 20 mg/kg/d ip, Day 16, read-out: Serum Triglyceride, Day 16.

Where two headings read alike, the source gives them in different places.

“4-(4- -n-butyl)-1,2 dipentylcarbonyl-1,2,4-triazolidine-3,5-dione”: in series [1] (normal CF1 mice, 20 mg/kg/d ip, Day 9), the “Serum Cholesterol, Day 9” value is recorded as 69 percent control. Further, in series [1] (setting [6]), the “Serum Cholesterol, Day 16” value is reported as 49 percent control and the “Serum Triglyceride, Day 16” value was 53 percent control.

A word on the LD50: it is the dose at which mortality reaches 50%. The low end stands for greater toxicity, the high end for lower toxicity. With `CC(=O)n1[nH]c(=O)n(-c2ccccc2)c1=O` [A, 4-phenyl-1-methylcarbonyl-1,2,4-triazolidine-3,5-dione], the LD50 in series [2] was more than 500 mg/kg. Besides, the response vs control in vivo at 20 mg/kg/day in series [1] (setting [7]) was 67 ± 5%; in series [1] (setting [8]), 61 ± 6%; in series [1] (setting [9]), 48 ± 6%. In addition, in series [3], the “Serum Cholesterol” value was 41% of Control. For the same compound, the “Serum Triglyceride” value in series [3] is 40% of Control.

With `CC(=O)n1c(=O)n(-c2ccccc2)c(=O)n1C(C)=O` [B, 4-phenyl-1,2-dimethylcarbonyl-1,2,4-triazolidine-3,5-dione], the response vs control in vivo at 20 mg/kg/day in series [1] (setting [7]) was 70 ± 6%; in series [1] (setting [8]), 64 ± 5%; in series [1] (setting [9]), 61 ± 5%.

As to `CCOC(=O)n1[nH]c(=O)n(-c2ccccc2)c1=O` [C, 4-phenyl-1-ethoxycarbonyl-1,2,4-triazolidine-3,5-dione], the results for the response vs control in vivo at 20 mg/kg/day in series [1] (setting [7]), in series [1] (setting [8]) and in series [1] (setting [9]) were 73 ± 7%, 69 ± 5% and 62 ± 6%, respectively.

Turning to `CC(=O)n1[nH]c(=O)n(-c2ccc(Cl)cc2)c1=O` [Compound D, 4-(4-chlorophenyl)-1-methylcarbonyl-1,2,4-triazolidine-3,5-dione], the response vs control in vivo at 20 mg/kg/day in series [1] (setting [7]) stood at 73 ± 4%; in series [1] (setting [8]), 64 ± 6%; in series [1] (setting [9]), 55 ± 7%.

`CCOC(=O)c1nc(=O)n(-c2ccccc2)c(=O)[nH]1` [Compound N, 3-phenyl-6-ethoxycarbonyl-1,3,5-triazine-2,4(1 --H,3 --H)-dione]: the response vs control in vivo at 20 mg/kg/day in series [1] (setting [7]) is 63 ± 6%; in series [1] (setting [8]), 54 ± 5%; in series [1] (setting [9]), 51 ± 2%. The VLDL cholesterol in series [4] is 50% of Control. Further, the “Serum Cholesterol” value in series [3] is recorded as 50% of Control. Further, the “Serum Triglyceride” value in series [3] is given as 46% of Control.

For the compound `CCC(=O)n1c(=O)n(-c2ccc([N+](=O)[O-])cc2)c(=O)n1C(=O)CC` [Compound S, 4-(4-nitrophenyl)-1,2 diethylcarbonyl-1,2,4-triazolidine-3,5-dione], the response vs control in vivo at 20 mg/kg/day in series [1] (setting [7]) was 72%; in series [1] (setting [8]), 36%; in series [1] (setting [9]), 62%.

For the compound `O=c1[nH][nH]c(=O)n1-c1ccccc1` [E, 4-phenyl-1,2,4-triazolidine-3,5-dione], the values for the response vs control in vivo at 20 mg/kg/day in series [1] (setting [7]), in series [1] (setting [8]) and in series [1] (setting [9]) were 71 ± 5%, 48 ± 3% and 68 ± 6%, respectively.

Consider `COc1ccc(-n2c(=O)[nH][nH]c2=O)cc1` [F, 4-(4-methoxyphenyl)-1,2,4-triazolidine-3,5-dione], for which the response vs control in vivo at 20 mg/kg/day in series [1] (setting [7]) was determined as 75 ± 5%; in series [1] (setting [8]), 56 ± 4%; in series [1] (setting [9]), 58 ± 3%.

On to `CCCCn1c(=O)[nH][nH]c1=O` [G, 4-(4-n-butyl)-1,2,4-triazolidine-3,5-dione], for which the response vs control in vivo at 20 mg/kg/day in series [1] (setting [7]) is 71 ± 6%; in series [1] (setting [8]), 69 ± 5%; in series [1] (setting [9]), 79 ± 8%.

On to `O=c1[nH][nH]c(=O)n1-c1ccc([N+](=O)[O-])cc1` [H, 4-(4-nitrophenyl)-1,2,4-triazolidine-3,5-dione], for which the response vs control in vivo at 20 mg/kg/day in series [1] (setting [7]) is 73 ± 5%; in series [1] (setting [8]), 66 ± 5%; in series [1] (setting [9]), 47 ± 5%.

As for `O=c1[nH][nH]c(=O)n1-c1ccc(Cl)cc1` [J, 4-(4-chlorophenyl)-1,2,4-triazolidine-3,5-dione], the LD50 in series [2] is more than 500 mg/kg. In addition, the figures for the response vs control in vivo at 20 mg/kg/day in series [1] (setting [7]), in series [1] (setting [8]) and in series [1] (setting [9]) were 90 ± 5%, 58 ± 4% and 43 ± 4%, respectively. The “Serum Cholesterol” value in series [3] is 46% of Control. Moreover, the “Serum Triglyceride” value in series [3] is given as 49% of Control.

For `Cn1c(=O)[nH][nH]c1=O` [K, 4-methyl-1,2,4-triazolidine-3,5-dione], the response vs control in vivo at 20 mg/kg/day in series [1] (setting [7]) was 88 ± 6%; in series [1] (setting [8]) it was 67 ± 5%; in series [1] (setting [9]) it was 89 ± 5%.

In the case of `CCOC(=O)C1n2c(=O)n(-c3ccc(Cl)cc3)c(=O)n21` [L, 3-(4-chlorophenyl)-6-ethoxyacarbonyl-1,3,5-triazabicyclo[3.1.0]hexane-2,4-dione], the response vs control in vivo at 20 mg/kg/day in series [1] (ip, 216 h, read-out: Serum Cholesterol, Day 9) amounted to 74 ± 3%; in series [1] (ip, 384 h, read-out: Serum Cholesterol, Day 16) it was 56 ± 5%; in series [1] (ip, 384 h, read-out: Serum Triglyceride, Day 16) it was 66 ± 7%.

`CCOC(=O)c1nc(=O)n(-c2ccc(Cl)cc2)c(=O)[nH]1` [O, 3-(4-chlorophenyl)-6-ethoxycarbonyl-1,3,5-triazine-2,4(1 --H,3 --H)-dione]: the response vs control in vivo at 20 mg/kg/day in series [1] (setting [7]) was 63 ± 4%; in series [1] (setting [8]), 57 ± 4%; in series [1] (setting [9]) it was 55 ± 6%.

On to `O=C(O)c1cc(=O)[nH]c(=O)[nH]1` [Orotic acid], for which the “plasma lipids blood level” value in series [5] is recorded as “decrease the plasma lipids blood level in rats”.

For `COc1ccc(-n2c(=O)n(C(C)=O)n(C(C)=O)c2=O)cc1` [P, 4(4-methoxyphenyl)-1,2-dimethylcarbonyl-1,2,4-triazolidine-3,5-dione], the results for the response vs control in vivo at 20 mg/kg/day in series [1] (setting [7]), in series [1] (setting [8]) and in series [1] (setting [9]) were 76%, 57% and 49%, respectively.

With `O=c1[nH][nH]c(=O)[nH]1` [Parent, 1,2,4-triazolidine-3,5-dione], the response vs control in vivo at 20 mg/kg/day in series [1] (setting [7]) came to 81%; in series [1] (setting [8]) it was 79%; in series [1] (setting [9]) it was 73%.

For the compound `COc1ccc(-n2c(=O)n(C(=O)c3ccccc3)n(C(=O)c3ccccc3)c2=O)cc1` [Q, 4.(4-methoxyphenyl)-1,2-diphenylcarbonyl-1,2,4-triazolidine-3,5-dione], the response vs control in vivo at 20 mg/kg/day amounted to 67% in series [1] (setting [7]), 86% in series [1] (setting [8]) and 75% in series [1] (setting [9]).

Regarding `CCC(=O)n1c(=O)n(-c2ccc(OC)cc2)c(=O)n1C(=O)CC` [R, 4.(4-methoxyphenyl)-1,2 diethylcarbonyl-1,2,4-triazolidine-3,5-dione], the response vs control in vivo at 20 mg/kg/day in series [1] (setting [7]) was found to be 62%; in series [1] (setting [8]), 63%; in series [1] (setting [9]), 62%.

As to `CC(=O)n1c(=O)n(-c2ccc(Cl)cc2)c(=O)n1C(C)=O` [U, 4-(4-chlorophenyl)-1,2-dimethylcarbonyl-1,2,4-triazolidine-3,5-dione], the values for the response vs control in vivo at 20 mg/kg/day in series [1] (setting [7]), in series [1] (setting [8]) and in series [1] (setting [9]) were 72%, 51% and 51%, respectively.

On to `CCCCCC(=O)n1[nH]c(=O)n(-c2ccc(Cl)cc2)c1=O` [V, 4-(4-chlorophenyl)1-pentylcarbonyl (2 --H)-1,2,4-triazolidine-3,5 dione], for which the response vs control in vivo at 20 mg/kg/day in series [1] (setting [7]) is 77%; in series [1] (setting [8]), 52%; in series [1] (setting [9]) it was 42%.
